Data from ChEMBL document CHEMBL1124638, “2,4-Diamino-5-benzylpyrimidines and analogues as antibacterial agents. 10. 2,4-Diamino-5-(6-quinolylmethyl)- and -[(tetrahydro-6-quinolyl)methyl]pyrimidine derivatives. Further specificity studies” (J Med Chem, 1989).
Converted amounts (≈) assume the structure as drawn.

Assays:
Pasteurella multocida = assay: Comparative in vitro antibacterial activity with trimethoprim against Pasteurella multocida ATCC 6587; assay type: functional
Shigella flexneri = assay: Comparative in vitro antibacterial activity with trimethoprim against Shigella flexneri CN6007; assay type: functional
Klebsiella aerogenes = assay: Comparative in vitro antibacterial activity with trimethoprim against Enterobacter aerogenes 2200/86; assay type: functional
Dihydrofolate reductase [1] = target: T1, Dihydrofolate reductase (Rattus norvegicus, UniProt Q920D2); assay: Inhibitory activity against dihydrofolate reductase in rat liver; conditions: read-out: I50
T1 sequence (Q920D2 whole entry): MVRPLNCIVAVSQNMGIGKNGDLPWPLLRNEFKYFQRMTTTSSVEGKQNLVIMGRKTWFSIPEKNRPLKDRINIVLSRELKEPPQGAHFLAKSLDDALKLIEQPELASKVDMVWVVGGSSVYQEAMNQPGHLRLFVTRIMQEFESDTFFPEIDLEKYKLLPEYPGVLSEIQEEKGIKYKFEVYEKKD

[2] = tested on: Mycolicibacterium smegmatis; assay: Comparative in vitro antibacterial activity with trimethoprim against Mycobacterium smegmatis S 3254; assay type: functional
Streptococcus agalactiae = assay: Comparative in vitro antibacterial activity with trimethoprim against Streptococcus agalactiae CN1143; assay type: functional
Enterococcus faecalis = assay: Comparative in vitro antibacterial activity with trimethoprim against Streptococcus faecalis CN478; assay type: functional
[3] = Comparative in vitro antibacterial activity with trimethoprim against Salmonella typhi CN512; assay type: functional, salmonella typhosa
Klebsiella pneumoniae = assay: Comparative in vitro antibacterial activity with trimethoprim against Klebsiella pneumoniae CN3632; assay type: functional
Staphylococcus aureus = assay: Comparative in vitro antibacterial activity with trimethoprim against Staphylococcus aureus CN491; assay type: functional
Streptococcus pyogenes = assay: Comparative in vitro antibacterial activity of compound with trimethoprim against Streptococcus pyogenes CN10; assay type: functional
Escherichia coli = assay: Comparative in vitro antibacterial activity with trimethoprim against Escherichia coli CN314; assay type: functional
Proteus mirabilis = assay: Comparative in vitro antibacterial activity with trimethoprim against Proteus mirabilis S2409; assay type: functional
Citrobacter freundii = assay: Comparative in vitro antibacterial activity with trimethoprim against Citrobacter freundii 2200/77; assay type: functional
Proteus vulgaris = assay: Comparative in vitro antibacterial activity with trimethoprim against Proteus vulgaris CN329; assay type: functional
Serratia marcescens = assay: Comparative in vitro antibacterial activity with trimethoprim against Serratia marcescens CN2398; assay type: functional
[4] = tested on: Bordetella bronchiseptica; assay: Comparative in vitro antibacterial activity with trimethoprim against Bordetella bronchiseptica CN385; assay type: functional
Salmonella typhimurium = assay: Comparative in vitro antibacterial activity with trimethoprim against Salmonella Typhimurium S 8587; assay type: functional, Salmonella enterica subsp. enterica serovar Typhimurium; conditions: Salmonella enterica
Vibrio cholerae = assay: Comparative in vitro antibacterial activity with trimethoprim against Vibrio cholerae ATCC 14035; assay type: functional
Dihydrofolate reductase [5] = target: Dihydrofolate reductase (Neisseria gonorrhoeae, UniProt P04174); assay: Inhibitory activity against Dihydrofolate reductase in Neisseria gonorrhoeae; conditions: read-out: I50
Chain of Dihydrofolate reductase (Neisseria gonorrhoeae, UniProt P04174) (P04174 whole entry): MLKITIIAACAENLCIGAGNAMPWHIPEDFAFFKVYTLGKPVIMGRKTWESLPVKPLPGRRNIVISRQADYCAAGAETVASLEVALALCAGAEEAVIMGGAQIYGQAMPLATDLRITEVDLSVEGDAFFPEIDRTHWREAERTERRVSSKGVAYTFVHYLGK

Row | Structure (SMILES) | MIC (Pasteurella multocida) [µg/mL] | MIC (Shigella flexneri) [µg/mL] | MIC (Klebsiella aerogenes) [µg/mL] | IC50 (Dihydrofolate reductase [1]) [µM] | MIC [2] [µg/mL] | MIC (Streptococcus agalactiae) [µg/mL] | MIC (Enterococcus faecalis) [µg/mL] | MIC [3] [µg/mL] | MIC (Klebsiella pneumoniae) [µg/mL] | MIC (Staphylococcus aureus) [µg/mL] | MIC (Streptococcus pyogenes) [µg/mL] | MIC (Escherichia coli) [µg/mL] | MIC (Proteus mirabilis) [µg/mL] | MIC (Citrobacter freundii) [µg/mL] | MIC (Proteus vulgaris) [µg/mL] | MIC (Serratia marcescens) [µg/mL] | MIC [4] [µg/mL] | MIC (Salmonella typhimurium) [µg/mL] | MIC (Vibrio cholerae) [µg/mL] | IC50 (Dihydrofolate reductase [5]) [µM]
1 | COCCOc1cc(Cc2cnc(N)nc2N)cc2cccnc12 | 30 (≈ 92.2 µM) | 100 (≈ 307 µM) | 100 (≈ 307 µM) | 9.9 | 3 (≈ 9.22 µM) | 10 (≈ 30.7 µM) | 3 (≈ 9.22 µM) | 100 (≈ 307 µM) | 100 (≈ 307 µM) | 10 (≈ 30.7 µM) | 3 (≈ 9.22 µM) | 100 (≈ 307 µM) | > 30 | 300 (≈ 922 µM) | > 100 | > 10 | 30 (≈ 92.2 µM) | 100 (≈ 307 µM) | 30 (≈ 92.2 µM) | 
2 | COc1cc(Cc2cnc(N)nc2N)cc2c1NCCC2C (stereo not drawn) | 3 (≈ 10 µM) | 10 (≈ 33.4 µM) | 3 (≈ 10 µM) |  | 1 (≈ 3.34 µM) | 1 (≈ 3.34 µM) | 1 (≈ 3.34 µM) | 10 (≈ 33.4 µM) | 3 (≈ 10 µM) | 1 (≈ 3.34 µM) | 1 (≈ 3.34 µM) | 3 (≈ 10 µM) | 3 (≈ 10 µM) | 10 (≈ 33.4 µM) | 10 (≈ 33.4 µM) | 3 (≈ 10 µM) | 10 (≈ 33.4 µM) | 10 (≈ 33.4 µM) | 1 (≈ 3.34 µM) | 
3 | COCCN1CCC(C)c2cc(Cc3cnc(N)nc3N)cc(OC)c21 (stereo not drawn) | 30 (≈ 83.9 µM) | 100 (≈ 280 µM) | 30 (≈ 83.9 µM) | 260 | 10 (≈ 28 µM) | 3 (≈ 8.39 µM) | 0.3 (≈ 0.839 µM) | 30 (≈ 83.9 µM) | 30 (≈ 83.9 µM) | 3 (≈ 8.39 µM) | 1 (≈ 2.8 µM) | 30 (≈ 83.9 µM) |  | 100 (≈ 280 µM) | > 100 | > 10 | 100 (≈ 280 µM) | 100 (≈ 280 µM) | 100 (≈ 280 µM) | 1.4
4 | Cc1ccnc2c([N+](=O)[O-])cc(Cc3cnc(N)nc3N)cc12 | 3 (≈ 9.67 µM) | 10 (≈ 32.2 µM) | 10 (≈ 32.2 µM) | 5.7 | 1 (≈ 3.22 µM) | 1 (≈ 3.22 µM) | 3 (≈ 9.67 µM) | 3 (≈ 9.67 µM) | 10 (≈ 32.2 µM) | 1 (≈ 3.22 µM) | 1 (≈ 3.22 µM) | 10 (≈ 32.2 µM) | 10 (≈ 32.2 µM) | 10 (≈ 32.2 µM) | 10 (≈ 32.2 µM) | 30 (≈ 96.7 µM) | 3 (≈ 9.67 µM) | 10 (≈ 32.2 µM) | 1 (≈ 3.22 µM) | 
5 | Cc1ccnc2c(N)cc(Cc3cnc(N)nc3N)cc12 | 10 (≈ 35.7 µM) | 30 (≈ 107 µM) | 10 (≈ 35.7 µM) | 32 | 10 (≈ 35.7 µM) | 10 (≈ 35.7 µM) | 3 (≈ 10.7 µM) | 10 (≈ 35.7 µM) | 10 (≈ 35.7 µM) | 3 (≈ 10.7 µM) |  | 10 (≈ 35.7 µM) | 1 (≈ 3.57 µM) | 10 (≈ 35.7 µM) | 3 (≈ 10.7 µM) | 30 (≈ 107 µM) | 30 (≈ 107 µM) | 30 (≈ 107 µM) | 3 (≈ 10.7 µM) | 
6 | Nc1ncc(Cc2ccc3c(c2)CCCN3)c(N)n1 | 10 (≈ 39.2 µM) | 30 (≈ 117 µM) | 10 (≈ 39.2 µM) | 140 | 3 (≈ 11.7 µM) | 10 (≈ 39.2 µM) | 10 (≈ 39.2 µM) | 10 (≈ 39.2 µM) | 10 (≈ 39.2 µM) | 30 (≈ 117 µM) | 10 (≈ 39.2 µM) | 30 (≈ 117 µM) | 10 (≈ 39.2 µM) | 10 (≈ 39.2 µM) | 10 (≈ 39.2 µM) | 10 (≈ 39.2 µM) | 10 (≈ 39.2 µM) | 10 (≈ 39.2 µM) | 10 (≈ 39.2 µM) | 
7 | Cc1ccnc2ccc(Cc3cnc(N)nc3N)cc12 | 1 (≈ 3.77 µM) | 3 (≈ 11.3 µM) | 3 (≈ 11.3 µM) | 22 | 1 (≈ 3.77 µM) | 1 (≈ 3.77 µM) | 1 (≈ 3.77 µM) | 1 (≈ 3.77 µM) | 1 (≈ 3.77 µM) | 1 (≈ 3.77 µM) | 3 (≈ 11.3 µM) | 3 (≈ 11.3 µM) | 1 (≈ 3.77 µM) | 3 (≈ 11.3 µM) | 1 (≈ 3.77 µM) | 1 (≈ 3.77 µM) | 1 (≈ 3.77 µM) | 3 (≈ 11.3 µM) | 1 (≈ 3.77 µM) | 
8 | COc1cc(Cc2cnc(N)nc2N)cc2c1N(C)CCC2C (stereo not drawn) | 3 (≈ 9.57 µM) | 10 (≈ 31.9 µM) | 3 (≈ 9.57 µM) |  | 3 (≈ 9.57 µM) | 0.3 (≈ 0.957 µM) | 0.3 (≈ 0.957 µM) | 3 (≈ 9.57 µM) | 3 (≈ 9.57 µM) | 1 (≈ 3.19 µM) |  | 3 (≈ 9.57 µM) | 3 (≈ 9.57 µM) | 3 (≈ 9.57 µM) | 10 (≈ 31.9 µM) | 3 (≈ 9.57 µM) | 3 (≈ 9.57 µM) | 10 (≈ 31.9 µM) | 3 (≈ 9.57 µM) | 0.89
9 | CN1CCCc2cc(Cc3cnc(N)nc3N)ccc21 | 30 (≈ 111 µM) | 10 (≈ 37.1 µM) | 30 (≈ 111 µM) | 89 | 10 (≈ 37.1 µM) | 10 (≈ 37.1 µM) | 3 (≈ 11.1 µM) | 30 (≈ 111 µM) | 30 (≈ 111 µM) | 10 (≈ 37.1 µM) |  | 30 (≈ 111 µM) | 10 (≈ 37.1 µM) | 30 (≈ 111 µM) | 30 (≈ 111 µM) | 30 (≈ 111 µM) | 30 (≈ 111 µM) | 30 (≈ 111 µM) | 10 (≈ 37.1 µM) | 0.95
